Common to all, as to assay type: cell-based, Human
The test system of one assay is MDA-MB-231 (breast). Briefly: SRB growth inhibition assay, MDA-MB-231. Particulars: read-out: Inhibition of cell growth (IC50, μM) MDA-MB-231. The text has this:
(§1) Cancer cells used in this study to determine the effect of tetrahydroisoquinolin-2-yl-(quinazolin-4-yl)methanone compounds were obtained from the following sources: Human OVCAR-3 (ovary), SK-MEL-28 (melanoma), MDA-MB-231 (breast), HeLa (cervix), PC3 (prostate), HepG2 (liver), A549 (lung), Caki-1 (kidney), HCT116 (colon) and PANC-1 (pancreas) from the American Type Culture Collection (ATCC) (Manassas, Va.); U251 (brain) from Riken (Japan); MKN-45 (stomach) from DSMZ (Germany). All cell lines except MDA-MB-231, HCT116, Caki-1 and PANC-1 were grown in RPMI1640 medium (Invitrogen, Carlsbad, Calif.) supplemented with 10% fetal bovine serum (“FBS”), 1 mM sodium pyruvate, 10 mM HEPES and 100 U/ml penicillin and 100 μg/ml streptomycin (“P/S”). MDA-MB-231, HCT116, Caki-1 and PANC-1 cells were maintained in Dulbecco's modified Eagle's medium (“DMEM”, Invitrogen) supplemented with 10% FBS, P/S, 10 mM HEPES and 2 mM L-glutamine. All cells were incubated at 37° C. under humidified 5% CO2.
(§2) The growth inhibition of the tetrahydroisoquinolin-2-yl-(quinazolin-4-yl)methanone compounds against a variety of human tumor cells was evaluated to study the relative importance of particular substituent groups on the compounds. The tetrahydroisoquinolin-2-yl-(quinazolin-4-yl)methanone compounds, prepared as described above, were tested with DMSO as a control.
(§3) The growth inhibition assay of representative tetrahydroisoquinolin-2-yl-(quinazolin-4-yl)methanone derivatives against human tumor cell lines was performed using the Sulforhodamine B (“SRB”) method (Skehan et al., J. National Cancer Institute, 82: 1107-1112 (1990)). Briefly, exponentially growing tumor cells were seeded into a 96-well plate at a density of 2-3×10^3 cells/well and treated with tetrahydroisoquinolin-2-yl-(quinazolin-4-yl)methanone compounds the next day. Triplicate wells were used for each treatment. The cells were incubated with the various compounds for 96 hours at 37° C. in a humidified 5% CO2 atmosphere. After 96-hour incubation, cells were fixed with 10% trichloroacetic acid (“TCA”), incubated for 1 hour at 4° C., and washed 3 times with tap water. Subsequently, cells were stained with 0.4% sulforhodamine B in 1% acetic acid for 30 minutes, washed 4 times with 1% acetic acid, and air-dried again After 5 minutes agitation in 10 mM Tris solution, the absorbance of each well was measured at 530 nm using Benchmark Plus Microplate reader (Bio-Rad Laboratories, Hercules, Calif.).
(§4) To translate the OD530 values into the number of live cells in each well, the OD530 values were compared to those on standard OD530-versus-cell number curves generated for each cell line. The percent survival was calculated using the formula: % Survival=live cell number [test]/live cell number [control]×100
(§5) The IC50 values were calculated by non-linear regression analysis.
(§6) The compounds were screened against at […] including PANC-1, MDA-MB-231, HCT116 and Caki-1, at approximately 1 μM concentration. The inhibition of cell growth (IC50, μM) of some tetrahydroisoquinolin-2-yl-(quinazolin-4-yl)methanone compounds are shown in Table 2.

The subject of a further assay is HCT116 (colon). Briefly: SRB growth inhibition assay, HCT116. Particulars: read-out: Inhibition of cell growth (IC50, μM) HCT116.
From the text: as §1, §2, §3, §4, §5, §6

A further assay relates to PANC-1 (pancreas). Briefly: SRB growth inhibition assay, PANC-1. Particulars: read-out: Inhibition of cell growth (IC50, μM) Panc-1.
From the text: as §1, §2, §3, §4, §5, §6

For a further assay, the system named is Caki-1 (kidney). Briefly: SRB growth inhibition assay, Caki-1. As to conditions: read-out: Inhibition of cell growth (IC50, μM) Caki-1.
From the text: as §1, §2, §3, §4, §5, §6

Where [1] appears, read: Homo sapiens, MDA-MB-231, 96 hours incubation.
Where [2] appears, read: Homo sapiens, HCT-116, 96 hours incubation.
[3] abbreviates: Homo sapiens, PANC-1, 96 hours incubation.
[4] abbreviates: Homo sapiens, CAKI-1, 96 hours incubation.

Read-outs that look alike come from different tables or passages of the source.

With `COc1ccc2c(c1O)CCN(C(=O)c1nc(-c3ccc([N+](=O)[O-])cc3)nc3ccccc13)C2` [Compound 95, 2-[[2-(4-nitrophenyl)quinazolin-4-yl]carbonyl]-5-hydroxy-6-methoxy-1,2,3,4-tetrahydroisoquinoline], the IC50 turned out to be 0.11 µM with MDA-MB-231 (breast) (setting [1]), 0.16 µM in the assay with HCT116 (colon) (setting [2]) and 0.2 µM in the assay with PANC-1 (pancreas) (setting [3]).

On to `COc1ccc2c(c1OC)CCN(C(=O)c1nc(-c3ccccc3)nc3ccccc13)C2` [Compound 19, 2-[[2-phenylquinazolin-4-yl]carbonyl]-5,6-dimethoxy-1,2,3,4-tetrahydroisoquinoline], for which the IC50 in the assay on MDA-MB-231 (breast) (setting [1]) came out at 0.84 µM; in the assay with HCT116 (colon) (setting [2]), 1.08 µM; with Caki-1 (kidney) (setting [4]), 0.85 µM; in the assay with PANC-1 (pancreas) (setting [3]), 1.06 µM.

Turning to `Cc1ccc2c(c1O)CCN(C(=O)c1nc(-c3ccncn3)nc3ccccc13)C2` [Compound 73, 2-[[2-(4-pyrimidinyl)quinazolin-4-yl]carbonyl]-5-hydroxy-6-methyl-1,2,3,4-tetrahydroisoquinoline], the IC50 in the assay on MDA-MB-231 (breast) (setting [1]) amounted to 0.21 µM; in the assay on HCT116 (colon) (setting [2]) it was 0.26 µM; in the assay with Caki-1 (kidney) (setting [4]), 0.19 µM; with PANC-1 (pancreas) (setting [3]), 0.2 µM.

For `COc1ccc(-c2nc(C(=O)N3CCc4c(ccc(OC)c4OC)C3)c3ccccc3n2)cc1` [Compound 24, 2-[[2-(4-methoxylphenyl)quinazolin-4-yl]carbonyl]-5,6-dimethoxy-1,2,3,4-tetrahydroisoquinoline], the concentration for half-maximal inhibition (IC50) is 0.41 µM in the assay on MDA-MB-231 (breast) (setting [1]), 0.49 µM in the assay on HCT116 (colon) (setting [2]), 0.38 µM with Caki-1 (kidney) (setting [4]) and 0.46 µM with PANC-1 (pancreas) (setting [3]).

Consider `COc1ccc2c(c1OC)CCN(C(=O)c1nc(-c3cscn3)nc3ccccc13)C2` [Compound 81, 2-[[2-(4-thiazolyl)quinazolin-4-yl]carbonyl]-5,6-dimethoxy-1,2,3,4-tetrahydroisoquinoline], for which the IC50 was 1 µM with MDA-MB-231 (breast) (setting [1]), 1.26 µM in the assay with HCT116 (colon) (setting [2]), 1.21 µM with Caki-1 (kidney) (setting [4]) and 1.43 µM in the assay on PANC-1 (pancreas) (setting [3]).

`COc1ccc2c(c1OC)CCN(C(=O)c1nc(-c3ccc(F)cc3)nc3ccccc13)C2` [Compound 3, 2-[[2-(4-fluorophenyl)quinazolin-4-yl]carbonyl]-5,6-dimethoxy-1,2,3,4-tetrahydroisoquinoline]: the half-maximal inhibitory concentration (IC50) was 1.2 µM in the assay on MDA-MB-231 (breast) (setting [1]), 1.39 µM with HCT116 (colon) (setting [2]), 1.1 µM with Caki-1 (kidney) (setting [4]) and 1.45 µM in the assay with PANC-1 (pancreas) (setting [3]).

Consider “2-[[2-(3-fluorophenyl)phenyl)quinazolin-4-yl]carbonyl]-5-hydroxy-6-methyl-1,2,3,4-tetrahydroisoquinoline [Compound 46]”, for which the IC50 in the assay on MDA-MB-231 (breast) (96 hours incubation) came out at 0.58 µM; in the assay with HCT116 (colon) (96 hours incubation), 0.54 µM; with Caki-1 (kidney) (96 hours incubation), 0.52 µM; with PANC-1 (pancreas) (96 hours incubation), 0.51 µM.

For `Cc1ccc2c(c1O)CCN(C(=O)c1nc(-c3ccccc3)nc3ccccc13)C2` [Compound 21, 2-[[2-phenylquinazolin-4-yl]carbonyl]-5-hydroxy-6-methyl-1,2,3,4-tetrahydroisoquinoline], the IC50 turned out to be 0.27 µM with MDA-MB-231 (breast) (setting [1]), 0.34 µM in the assay on HCT116 (colon) (setting [2]), 0.23 µM in the assay on Caki-1 (kidney) (setting [4]) and 0.22 µM with PANC-1 (pancreas) (setting [3]).

Turning to `COc1ccc2c(c1O)CCN(C(=O)c1nc(-c3cscn3)nc3ccccc13)C2` [Compound 79, 2-[[2-(4-thiazolyl)quinazolin-4-yl]carbonyl]-5-hydroxy-6-methoxy-1,2,3,4-tetrahydroisoquinoline], the IC50 worked out at 0.17 µM in the assay on MDA-MB-231 (breast) (setting [1]), 0.2 µM in the assay with HCT116 (colon) (setting [2]), 0.16 µM in the assay with Caki-1 (kidney) (setting [4]) and 0.17 µM with PANC-1 (pancreas) (setting [3]).

Turning to `Cc1ccc(-c2nc(C(=O)N3CCc4c(ccc(C)c4O)C3)c3ccccc3n2)cc1` [Compound 16, 2-[[2-(4-methylphenyl)quinazolin-4-yl]carbonyl]-5-hydroxy-6-methyl-1,2,3,4-tetrahydroisoquinoline], the IC50 with MDA-MB-231 (breast) (setting [1]) was 1.5 µM; with HCT116 (colon) (setting [2]) it was 2.05 µM; with Caki-1 (kidney) (setting [4]), 1.61 µM; in the assay with PANC-1 (pancreas) (setting [3]), 1.72 µM.

Regarding `COc1ccc2c(c1O)CCN(C(=O)c1nc(-c3ccc(C(F)(F)F)cc3)nc3ccccc13)C2` [Compound 37, 2-[[2-(4-(trifluoromethyl)phenyl)quinazolin-4-yl]carbonyl]-5-hydroxy-6-methoxy-1,2,3,4-tetrahydroisoquinoline], the IC50 with MDA-MB-231 (breast) (setting [1]) was found to be 0.42 µM; in the assay on HCT116 (colon) (setting [2]) it was 0.55 µM; in the assay with Caki-1 (kidney) (setting [4]), 0.36 µM; in the assay on PANC-1 (pancreas) (setting [3]), 0.43 µM.

Turning to `COc1ccc2c(c1OC)CCN(C(=O)c1nc(-c3cccc(C(F)(F)F)c3)nc3ccccc13)C2` [Compound 54, 2-[[2-(3-(trifluoromethyl)phenyl)quinazolin-4-yl]carbonyl]-5,6-dimethoxy-1,2,3,4-tetrahydroisoquinoline], the IC50 came out at 3.44 µM with MDA-MB-231 (breast) (setting [1]) and 1.65 µM in the assay with HCT116 (colon) (setting [2]).

In the case of `Cc1ccc2c(c1O)CCN(C(=O)c1nc(-c3ccc(Cl)cc3)nc3ccccc13)C2` [Compound 31, 2-[[2-(4-chlorophenyl)quinazolin-4-yl]carbonyl]-5-hydroxy-6-methyl-1,2,3,4-tetrahydroisoquinoline], the 50% inhibitory concentration (IC50) turned out to be 0.63 µM in the assay on MDA-MB-231 (breast) (setting [1]), 0.91 µM in the assay with HCT116 (colon) (setting [2]), 0.64 µM in the assay on Caki-1 (kidney) (setting [4]) and 0.85 µM in the assay with PANC-1 (pancreas) (setting [3]).

As to `Cc1ccc2c(c1O)CCN(C(=O)c1nc(-c3cccnc3)nc3ccccc13)C2` [Compound 88, 2-[[2-(3-pyridinyl)quinazolin-4-yl]carbonyl]-5-hydroxy-6-methyl-1,2,3,4-tetrahydroisoquinoline], the IC50 was found to be 0.67 µM in the assay on MDA-MB-231 (breast) (setting [1]), 1.12 µM in the assay with HCT116 (colon) (setting [2]), 0.97 µM with Caki-1 (kidney) (setting [4]) and 0.93 µM in the assay on PANC-1 (pancreas) (setting [3]).

`COc1ccc(-c2nc(C(=O)N3CCc4c(ccc(N(C)C)c4O)C3)c3ccccc3n2)cc1` [Compound 25, 2-[[2-(4-methoxylphenyl)quinazolin-4-yl]carbonyl]-5-hydroxy-6-dimethylamino-1,2,3,4-tetrahydroisoquinoline]: the IC50 in the assay with MDA-MB-231 (breast) (setting [1]) is 2.53 µM; with PANC-1 (pancreas) (setting [3]) it was 1.77 µM.

In the case of `COc1ccc2c(c1O)CCN(C(=O)c1nc(-c3ccc(N)cc3)nc3ccccc13)C2` [Compound 96, 2-[[2-(4-aminophenyl)quinazolin-4-yl]carbonyl]-5-hydroxy-6-methoxy-1,2,3,4-tetrahydroisoquinoline], the figures for the IC50 with MDA-MB-231 (breast) (setting [1]), in the assay on HCT116 (colon) (setting [2]) and in the assay on PANC-1 (pancreas) (setting [3]) were 0.23 µM, 0.36 µM and 0.28 µM, respectively.

Turning to `Cc1ccc2c(c1O)CCN(C(=O)c1nc(-c3cscn3)nc3ccccc13)C2` [Compound 83, 2-[[2-(4-thiazolyl)quinazolin-4-yl]carbonyl]-5-hydroxy-6-methyl-1,2,3,4-tetrahydroisoquinoline], the IC50 with MDA-MB-231 (breast) (setting [1]) stood at 0.21 µM; in the assay on HCT116 (colon) (setting [2]), 0.29 µM; in the assay on Caki-1 (kidney) (setting [4]), 0.25 µM; in the assay with PANC-1 (pancreas) (setting [3]), 0.23 µM.

In the case of `COc1ccc2c(c1O)CCN(C(=O)c1nc(-c3ccc(C)cc3)nc3ccccc13)C2` [Compound 12, 2-[[2-(4-methylphenyl)quinazolin-4-yl]carbonyl]-5-hydroxy-6-methoxy-1,2,3,4-tetrahydroisoquinoline], the IC50 came to 0.23 µM in the assay with MDA-MB-231 (breast) (setting [1]), 0.29 µM in the assay on HCT116 (colon) (setting [2]), 0.2 µM with Caki-1 (kidney) (setting [4]) and 0.18 µM in the assay with PANC-1 (pancreas) (setting [3]).

Turning to `COc1ccc(-c2nc(C(=O)N3CCc4c(ccc(C)c4O)C3)c3ccccc3n2)cc1` [Compound 26, 2-[[2-(4-methoxylphenyl)quinazolin-4-yl]carbonyl]-5-hydroxy-6-methyl-1,2,3,4-tetrahydroisoquinoline], the IC50 is 0.19 µM with MDA-MB-231 (breast) (setting [1]), 0.22 µM in the assay on HCT116 (colon) (setting [2]), 0.16 µM in the assay on Caki-1 (kidney) (setting [4]) and 0.18 µM with PANC-1 (pancreas) (setting [3]).
